Data published in patent publication US8394952B2 (Vertex Pharmaceuticals Incorporated, priority 2006, dated 2013).
Where “and” joins values, the source holds several entries; their conditions need not be identical. Identical values can stand only once.

Target: Plk1 (Homo sapiens, UniProt P53350)
Test: biochemical

Chain of Plk1 (P53350 20-338): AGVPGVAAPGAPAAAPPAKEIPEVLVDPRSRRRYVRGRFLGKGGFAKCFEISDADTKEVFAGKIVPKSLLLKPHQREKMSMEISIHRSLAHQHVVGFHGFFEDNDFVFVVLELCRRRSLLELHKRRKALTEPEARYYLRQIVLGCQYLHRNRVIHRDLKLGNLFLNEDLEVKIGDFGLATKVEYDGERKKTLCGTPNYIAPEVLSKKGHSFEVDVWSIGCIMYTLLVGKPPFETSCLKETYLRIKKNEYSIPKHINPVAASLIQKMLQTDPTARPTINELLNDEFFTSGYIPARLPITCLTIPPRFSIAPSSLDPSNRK

Compound | Ki
COc1cc(C(=O)NC2CCN(C)CC2)ccc1Nc1ncc2c(n1)N(C1CCCC1)CC(C)C(=O)N2C (stereo not drawn) [Compound I-12, 4-(9-cyclopentyl-6,7,8,9-tetrahydro-5,7-dimethyl-6-oxo-5H-pyrimido[4,5-b][1,4]diazepin-2-ylamino)-3-methoxy-N-(1-methylpiperidin-4-yl)benzamide] | < 0.01 µM
Cc1cc(O)n(-c2ccc(Nc3ncc4c(n3)N(C3CCCC3)CC(C)(C)C(=O)N4C)cc2)n1 [Compound I-98, 2-(4-(5-hydroxy-3-methyl-1H-pyrazol-1-yl)phenylamino)-9-cyclopentyl-8,9-dihydro-5,7,7-trimethyl-5H-pyrimido[4,5-b][1,4]diazepin-6(7H)-one] | 0.01 to 0.1 µM
COc1cc(C(=O)N[C@H]2CC[C@H](O)CC2)ccc1Nc1ncc2c(n1)N(C1CCCC1)CC1(CC1)C(=O)N2C [Compound I-251, 4-(9′-cyclopentyl-5′-methyl-6′-oxo-5′,6′,8′,9′-tetrahydrospiro[cyclopropane-1,7′-pyrimido[4,5-b][1,4]diazepine]-2′-ylamino)-N-((1R,4R)-4-hydroxycyclohexyl)-3-methoxybenzamide] | < 0.01 µM
CN1C(=O)C(C)(C)CN(C2CCCC2)c2nc(Nc3cccn4ncnc34)ncc21 [Compound I-92, 2-([1,2,4]triazolo[1,5-a]pyridin-8-ylamino)-9-cyclopentyl-8,9-dihydro-5,7,7-trimethyl-5H-pyrimido[4,5-b][1,4]diazepin-6(7H)-one] | 0.01 to 0.1 µM
CC(=O)Nc1ccc(Nc2ncc3c(n2)N(C2CCCC2)CC(C)(C)C(=O)N3C)cc1 [Compound I-112, N-(4-(9-cyclopentyl-6,7,8,9-tetrahydro-5,7,7-trimethyl-6-oxo-5H-pyrimido[4,5-b][1,4]diazepin-2-ylamino)phenyl)acetamide] | 0.01 to 0.1 µM
CN1C(=O)C(C)(C)CN(C2CCCC2)c2nc(Nc3ccc(N)cc3)ncc21 [Compound I-117, 2-(4-aminophenylamino)-9-cyclopentyl-8,9-dihydro-5,7,7-trimethyl-5H-pyrimido[4,5-b][1,4]diazepin-6(7H)-one] | 0.01 to 0.1 µM
COc1cc(C(=O)NCc2ccc(S(C)(=O)=O)cc2)ccc1Nc1ncc2c(n1)N(C1CCCC1)CC(C)(C)C(=O)N2C [Compound I-214, 4-(9-cyclopentyl-5,7,7-trimethyl-6-oxo-6,7,8,9-tetrahydro-5H-pyrimido[4,5-b][1,4]diazepin-2-ylamino)-3-methoxy-N-(4-(methylsulfonyl)benzyl)benzamide] | < 0.01 µM
CNC(=O)c1ccc(Nc2ncc3c(n2)N(C2CCCC2)CC(C)(C)C(=O)N3C)cc1 [Compound I-80, 4-(9-cyclopentyl-6,7,8,9-tetrahydro-5,7,7-trimethyl-6-oxo-5H-pyrimido[4,5-b][1,4]diazepin-2-ylamino)-N-methylbenzamide] | < 0.01 µM
CN1C(=O)Cc2cc(Nc3ncc4c(n3)N(C3CCCC3)CC(C)(C)C(=O)N4C)ccc21 [Compound I-125, 2-(1-methyl-2-oxoindolin-5-ylamino)-9-cyclopentyl-8,9-dihydro-5,7,7-trimethyl-5H-pyrimido[4,5-b][1,4]diazepin-6(7H)-one] | 0.01 to 0.1 µM
CN1C(=O)C(C)(C)CN(C2CCCC2)c2nc(Nc3ccc4[nH]ncc4c3)ncc21 [Compound I-114, 2-(1H-indazo-5-ylamino)-9-cyclopentyl-8,9-dihydro-5,7,7-trimethyl-5H-pyrimido[4,5-b][1,4]diazepin-6(7H)-one] | 0.01 to 0.1 µM
CNC(=O)c1ccc(Nc2ncc3c(n2)N(CC2CNCCO2)CC(C)(C)C(=O)N3C)c(OC)c1 (stereo not drawn) [Compound I-192, 3-methoxy-N-methyl-4-(5,7,7-trimethyl-9-(morpholin-2-ylmethyl)-6-oxo-6,7,8,9-tetrahydro-5H-pyrimido[4,5-b][1,4]diazepin-2-ylamino)benzamide] | < 0.01 µM and 0.01 to 0.1 µM
COc1cc(C(=O)N[C@H]2CCOC2)ccc1Nc1ncc2c(n1)N(C1CCCC1)C[C@@H](C)C(=O)N2C [Compound I-183, 4-((R)-9-cyclopentyl-5,7-dimethyl-6-oxo-6,7,8,9-tetrahydro-5H-pyrimido[4,5-b][1,4]diazepin-2-ylamino)-3-methoxy-N—((S)-tetrahydrofuran-3-yl)benzamide] | < 0.01 µM
COc1cc(C(=O)NC2CCOCC2)ccc1Nc1ncc2c(n1)N(C1CCCC1)C[C@@H](C)C(=O)N2C [Compound I-182, (R)-4-(9-cyclopentyl-5,7-dimethyl-6-oxo-6,7,8,9-tetrahydro-5H-pyrimido[4,5-b][1,4]diazepin-2-ylamino)-3-methoxy-N-(tetrahydro-2H-pyran-4-yl)benzamide] | < 0.01 µM
CNC(=O)c1ccc(Nc2ncc3c(n2)N(CC(C)(C)C)CC(C)(C)C(=O)N3C)c(OC)c1 [Compound I-168, 4-(6,7,8,9-tetrahydro-5,7,7-trimethyl-9-neopentyl-6-oxo-5H-pyrimido[4,5-b][1,4]diazepin-2-ylamino)-3-methoxy-N-methylbenzamide] | 0.01 to 0.1 µM
CN1C(=O)C(C)(C)CN(C2CCCC2)c2nc(Nc3ccc4ncsc4c3)ncc21 [Compound I-44, 2-(benzo[d]thiazol-6-ylamino)-9-cyclopentyl-8,9-dihydro-5,7,7-trimethyl-5H-pyrimido[4,5-b][1,4]diazepin-6(7H)-one] | 0.01 to 0.1 µM

Continued, values first:

Ki | Compound
< 0.01 µM | COc1cc(C(=O)NCCc2cncn2C)ccc1Nc1ncc2c(n1)N(C1CCCC1)CC(C)(C)C(=O)N2C [Compound I-27, 4-(9-cyclopentyl-6,7,8,9-tetrahydro-5,7,7-trimethyl-6-oxo-5H-pyrimido[4,5-b][1,4]diazepin-2-ylamino)-3-methoxy-N-(2-(1-methyl-1H-imidazo-5-yl)ethyl)benzamide]
0.01 to 0.1 µM | CNC(=O)c1ccc(Nc2ncc3c(n2)N([C@@H]2CCN(CC4CC4)C2)CC(C)(C)C(=O)N3C)c(OC)c1 [Compound I-66]
< 0.01 µM | COc1cc(C(=O)Nc2ccncn2)ccc1Nc1ncc2c(n1)N(C1CCCC1)CC(C)(C)C(=O)N2C [Compound I-222, 4-(9-cyclopentyl-5,7,7-trimethyl-6-oxo-6,7,8,9-tetrahydro-5H-pyrimido[4,5-b][1,4]diazepin-2-ylamino)-3-methoxy-N-(pyrimidin-4-yl)benzamide]
< 0.01 µM | CNC(=O)c1ccc(Nc2ncc3c(n2)N([C@@H]2CCCN(C)C2)CC(C)(C)C(=O)N3C)c(OC)c1 [Compound I-96, 4-(6,7,8,9-tetrahydro-5,7,7-trimethyl-9-((R)-1-methylpiperidine-3-yl)-6-oxo-5H-pyrimido[4,5-b][1,4]diazepin-2-ylamino)-3-methoxy-N-methylbenzamide]
0.01 to 0.1 µM | CN1C(=O)C(C)(C)CN(C2CCCC2)c2nc(Nc3cccc(C(=O)NC4CNC4)c3)ncc21 [Compound I-156, 3-(9-cyclopentyl-6,7,8,9-tetrahydro-5,7,7-trimethyl-6-oxo-5H-pyrimido[4,5-b][1,4]diazepin-2-ylamino)-N-(azetidin-3-yl)benzamide]
0.01 to 0.1 µM | CNC(=O)c1ccc(Nc2ncc3c(n2)N(C2CCN(C)CC2)CC(C)(C)C(=O)N3C)c(OC)c1 [Compound I-97, 4-(6,7,8,9-tetrahydro-5,7,7-trimethyl-9-((R)-1-methylpiperidine-4-yl)-6-oxo-5H-pyrimido[4,5-b][1,4]diazepin-2-ylamino)-3-methoxy-N-methylbenzamide]
< 0.01 µM | COc1cc(C(=O)NC2CCCC2)ccc1Nc1ncc2c(n1)N(C1CCCC1)CC1(CC1)C(=O)N2C [Compound I-176, N-cyclopentyl-4-(9′-cyclopentyl-5′-methyl-6′-oxo-5′,6′,8′,9′-tetrahydrospiro[cyclopropane-1,7′-pyrimido[4,5-b][1,4]diazepine]-2′-ylamino)-3-methoxybenzamide]
< 0.01 µM | COc1cc(C(=O)N[C@@H]2CCN(C)C2)ccc1Nc1ncc2c(n1)N(C1CCCC1)CC(C)(C)C(=O)N2C [Compound I-26, 4-(9-cyclopentyl-6,7,8,9-tetrahydro-5,7,7-trimethyl-6-oxo-5H-pyrimido[4,5-b][1,4]diazepin-2-ylamino)-3-methoxy-N—((R)-1-methylpyrrolidin-3-yl)benzamide]
< 0.01 µM | COc1cc(C(=O)NCC2CCCO2)ccc1Nc1ncc2c(n1)N(C1CCCC1)CC(C)(C)C(=O)N2C (stereo not drawn) [Compound I-194, 4-(9-cyclopentyl-5,7,7-trimethyl-6-oxo-6,7,8,9-tetrahydro-5H-pyrimido[4,5-b][1,4]diazepin-2-ylamino)-3-methoxy-N-((tetrahydrofuran-2-yl)methyl)benzamide]
< 0.01 µM | COc1cc(C(=O)NC2CN(C(C)C)C2)ccc1Nc1ncc2c(n1)N(C1CCCC1)CC(C)(C)C(=O)N2C [Compound I-52, 4-(9-cyclopentyl-6,7,8,9-tetrahydro-5,7,7-trimethyl-6-oxo-5H-pyrimido[4,5-b][1,4]diazepin-2-ylamino)-N-(1-isopropylazetidin-3-yl)-3-methoxybenzamide]
< 0.01 µM | CCc1cc(C(=O)NC)ccc1Nc1ncc2c(n1)N(C1CCCC1)CC(C)(C)C(=O)N2C [Compound I-118, 4-(9-cyclopentyl-6,7,8,9-tetrahydro-5,7,7-trimethyl-6-oxo-5H-pyrimido[4,5-b][1,4]diazepin-2-ylamino)-3-ethyl-N-methylbenzamide]
< 0.01 µM | COc1cc(C(=O)NC2CCC2)ccc1Nc1ncc2c(n1)N(C1CCCC1)C[C@@H](C)C(=O)N2C [Compound I-186, (R)—N-cyclobutyl-4-(9-cyclopentyl-5,7-dimethyl-6-oxo-6,7,8,9-tetrahydro-5H-pyrimido[4,5-b][1,4]diazepin-2-ylamino)-3-methoxybenzamide]
< 0.01 µM | COc1cc(C(=O)Nc2ccnc(Cl)c2)ccc1Nc1ncc2c(n1)N(C1CCCC1)CC(C)(C)C(=O)N2C [Compound I-227, N-(2-chloropyridin-4-yl)4-(9-cyclopentyl-5,7,7-trimethyl-6-oxo-6,7,8,9-tetrahydro-5H-pyrimido[4,5-b][1,4]diazepin-2-ylamino)-3-methoxybenzamide]
0.01 to 0.1 µM | CN1C(=O)C(C)(C)CN(C2CCCC2)c2nc(Nc3cccc(C(=O)NC4CC4)c3)ncc21 [Compound I-159, 3-(9-cyclopentyl-6,7,8,9-tetrahydro-5,7,7-trimethyl-6-oxo-5H-pyrimido[4,5-b][1,4]diazepin-2-ylamino)-N-cyclopropylbenzamide]
< 0.01 µM | COc1cc(C(=O)Nc2nccs2)ccc1Nc1ncc2c(n1)N(C1CCCC1)CC(C)(C)C(=O)N2C [Compound I-223, 4-(9-cyclopentyl-5,7,7-trimethyl-6-oxo-6,7,8,9-tetrahydro-5H-pyrimido[4,5-b][1,4]diazepin-2-ylamino)-3-methoxy-N-(thiazol-2-yl)benzamide]
